In one data set the test system is HIV-1Lai. As to the kind of experiment: Syncytia formation blockage (chronically infected cells + uninfected Molt-4 cells). Format: cell-based. Also on record: key: -: The presence of syncytia is indicated by + signs, allocated in approximate proportion to the quantities counted; The presence of syncytia is indicated by + signs, allocated in approximate proportion to the quantities counted; ++: The presence of syncytia is indicated by + signs, allocated in approximate proportion to the quantities counted; +++: The presence of syncytia is indicated by + signs, allocated in approximate proportion to the quantities counted; ++++: The presence of syncytia is indicated by + signs, allocated in approximate proportion to the quantities counted. As to the method:
(§1) CEM or C8166 cells were chronically infected with HIV-1 Lai or HIV-2 Rod, or HIV-1MN, respectively. Infected cells (1×10^4) were incubated for 2 hours with various concentrations of MBPCs in 96-well plates. Uninfected Molt-4 cells (4×10^4) were then added in […]. Syncytia were counted after 18 hours at 37° C.

A further data set relates to HIV-1MN. The data set is described as above. In kind it is cell-based. Details: key: -: The presence of syncytia is indicated by + signs, allocated in approximate proportion to the quantities counted; The presence of syncytia is indicated by + signs, allocated in approximate proportion to the quantities counted; ++: The presence of syncytia is indicated by + signs, allocated in approximate proportion to the quantities counted; +++: The presence of syncytia is indicated by + signs, allocated in approximate proportion to the quantities counted; ++++: The presence of syncytia is indicated by + signs, allocated in approximate proportion to the quantities counted. As to the method: as §1

The subject of another data set is HIV-2Rod. Described as above. In kind it is cell-based. Details: key: -: The presence of syncytia is indicated by + signs, allocated in approximate proportion to the quantities counted; The presence of syncytia is indicated by + signs, allocated in approximate proportion to the quantities counted; ++: The presence of syncytia is indicated by + signs, allocated in approximate proportion to the quantities counted; +++: The presence of syncytia is indicated by + signs, allocated in approximate proportion to the quantities counted; ++++: The presence of syncytia is indicated by + signs, allocated in approximate proportion to the quantities counted. As for the experimental part:
as §1

Another data set has as its system HIV-1 (IIIB). In kind it is cell-based. Particulars: for number of syncytia (HIV-1 induced cell fusion): 24 hours. The source says: 50×10^3 8E5 cells chronically infected with a RT-deficient HIV-I (IIIB) isolate, were co-cultivated with 150×10^3 phytohemagglutinin (PHA) stimulated human peripheral blood lymphocytes (PBLs) in the presence of the indicated peptide in 96-well plates. The MBPCs used are described by the peptides attached, and the number thereof, to a core lysine matrix, which is designated HLC. All amino acids used for this experiment were in dextro form.

The test system of another data set is HIV-1 or HIV-2. As to the kind of experiment: Infection of human PBLs (RT activity, p24gag). Format: cell-based. Particulars: MBPC 10^-5 M; days 10 and 13 after infection; culture supernatants. As for the experimental part:
Peripheral blood lymphocytes (PBLs) were obtained from healthy donors, stimulated with phytohemagglutinin, and cultivated in RPMI 1640 containing 10% fetal calf serum and interleukin-2 (complete medium). Samples of 6×10^6 cells/ml were either treated or not treated with the indicated MBPC at a concentration of 10^-5 M and exposed to HIV-1 or HIV-2 (100 TCID50) for 1 hour at 37° C. in the continued presence of MBPCs. After thorough washing, PBLs were cultured in complete medium with 10^-5 M of the corresponding MBPC. The state of infection was assessed by determination of RT activity (for both HIV-1 and HIV-2 isolates) and HIV-1 p24^gag measurements (Coulter kit, cut-off 10 pg/ml) in the case of HIV-1 isolates 10 days post-infection. The MBPC treatment used were as follows: 1-none; 2- [GPGRAF]8 -MLC; 3-[[…]]4 -MLC; 4- [[…]]4 -MLC (a non-HIV related MBPC) (MLC indicates a core lysine structure). The results shown in FIGS. 2A-2C are representative of three separate experiments. The nature of the viral isolates used was checked by PCR (HIV-1 versus HIV-2 isolates) and RIPA for discriminating between HIV-1 (LAI) and HIV-1 (NDK).

For the next data set, the system named is HIV-1 (89.6). The experiment in a line: Infection of and syncytia formation in human primary macrophages. In kind it is cell-based. As to conditions: 5×10^-5 M; for inhibition of macrophage infection, in words: 10,000 TCID50. As to the method: MBPCs were also evaluated for their ability to block the infection of human primary macrophages by a highly cytopathic macrophage-tropic isolate, HIV-1 (89.6). Mononuclear cells were isolated from leukophoresis units enriched for monocytes by Ficoll-Hypaque density separation. Macrophages were purified by adherence to plastic in RPMI 1640 supplemented with 10% fetal calf serum and 5% human AB serum. […] 5×10^5 cells were treated for 45 minutes with the indicated MBPC at concentrations of 5×10^-5 M and subsequently exposed to 10,000 TCID50 of the macrophage-tropic isolate HIV (89.6). […] After thorough washing, the cells were fed again with medium and analyzed for HIV-1 p24^gag production and syncytia formation 4 days post-infection.

Another data set has as its system rabbits. The experiment in a line: ELISA of sera from rabbits immunized with MBPC.1 or MBPC.2. As to conditions: for reactivity of sera from rabbits immunized with the MBPC (ELISA, FIG. 6): against MBPC.1, MBPC.2, Mono.1 and V3 Cons; for antibody response in rabbits: rabbit, in vivo. Format: in vivo, rabbit. As to the method: Sera from rabbits immunized with either MBPC.1 or MBPC.2 were tested in ELISA for their ability to bind MBPC.1, MBPC.2, Mono.1 (the monomeric form of MBPC.1) and the North American/European consensus V3 sequence (V3 Cons, or Cs).
In another set of experiments, sera from rabbits immunized with either MBPC.1 or MBPC.2 were tested (at 1/100 and 1/1000 dilutions) against various concentrations of MBPC.1, MBPC.2 and V3 Cons. FIGS. 7A, 7B and 7C clearly indicate that sera from rabbits immunized with MBPC.2 reacted in a dose dependant manner against MBPC.2 and V3 Cons. No reactivity against MBPC.1 was detected.
(In general: An ELISA detects its analyte on a solid surface through an enzyme-linked reagent.)

The test system of another data set is HIV. The experiment in a line: Inhibition of syncytia formation induced by HIV (summary statements). Format: cell-based. As to the method: as §1

Where two headings read alike, the source gives them in different places. Ends that are not written are not given here.

For (GPGRAF)8 -(K)4 -(K)2 -K-βA-OH [MBPC.3], the Syncytia formation entry with HIV-1Lai (MBPC Conc. 5 × 10^-6 M) was “-”; with HIV-1Lai (MBPC Conc. 10^-6 M), “+”; in the data set with HIV-1Lai (MBPC Conc. 10^-7 M), “++++”; in the data set with HIV-1MN (MBPC Conc. 5 × 10^-6 M) it was “-”; with HIV-1MN (MBPC Conc. 10^-6 M) it was “+”; in the data set on HIV-1MN (MBPC Conc. 10^-7 M), “+++”. The values for the Syncytia formation entry with HIV-2Rod (MBPC Conc. 5 × 10^-6 M), in the data set on HIV-2Rod (MBPC Conc. 10^-6 M) and with HIV-2Rod (MBPC Conc. 10^-7 M) were “-”, “-” and “+”, respectively. The “number of syncytia (HIV-1 induced cell fusion)” value in the data set on HIV-1 (IIIB) (5 × 10^-5 M) was “- (- indicates the total absence of syncytia in the well)”; with HIV-1 (IIIB) (5 × 10^-6 M), “- (- indicates the total absence of syncytia in the well)”; with HIV-1 (IIIB) (5 × 10^-7 M) it was “±”. Moreover, in the data set with HIV-1 (IIIB) (5×10^-7 M), the “inhibition of syncytia formation, in words” value is on record as “marked inhibition of syncytia formation”. In addition, the “RT activity lower in MBPCs-treated samples than control samples” value in the data set on HIV-1 or HIV-2 was “more than 90%”. Moreover, the “inhibition of macrophage infection, in words” value with HIV-1 (89.6) is listed as “able to inhibit infection”. In addition, in the data set with HIV-1 (89.6) (pretreated, 4 days post-infection), the “giant cells (syncytia) in macrophage cultures” value is reported as “very few giant cells”. The “reactivity of sera from rabbits immunized with the MBPC (ELISA, FIG. 6)” value in the data set with rabbits was “did not react against MBPC.1 (except for a weak reactivity of the serum from rabbit A)”. For the same substance, in the data set with rabbits, the “antibody response in rabbits” value is recorded as “did not induce a significant antibody response”. Besides, the “MBPC concentration with which inhibiting effect on syncytia formation was observed in vitro” value in the data set on HIV is “around 10^-6 M”.
With “(RKSIHIGPGRAFYT)4 -(K)2 -K-βA-OH (also: four copies on lysine core (K)2-K-βA-OH) [MBPC.5, tetradecapeptide MBPC]”, the Syncytia formation entry in the data set on HIV-1Lai (MBPC Conc. 5 × 10^-6 M) is listed as “-”; in the data set on HIV-1Lai (MBPC Conc. 10^-6 M), “+”; in the data set with HIV-1Lai (MBPC Conc. 10^-7 M), “++++”; with HIV-1MN (MBPC Conc. 5 × 10^-6 M), “-”; with HIV-1MN (MBPC Conc. 10^-6 M), “++”; in the data set on HIV-1MN (MBPC Conc. 10^-7 M), “++++”. Moreover, the figures for the Syncytia formation result in the data set with HIV-2Rod (MBPC Conc. 5 × 10^-6 M), with HIV-2Rod (MBPC Conc. 10^-6 M) and in the data set with HIV-2Rod (MBPC Conc. 10^-7 M) were “-”, “-” and “+”, respectively. In addition, in the data set on HIV-1 (IIIB) (5×10^-6 M), the “inhibition of syncytia formation, in words” value is given as “able to inhibit syncytia formation”. The “number of syncytia (HIV-1 induced cell fusion)” value in the data set with HIV-1 (IIIB) (5 × 10^-6 M) was “- (- indicates the total absence of syncytia in the well)”; in the data set on HIV-1 (IIIB) (5 × 10^-7 M), “+++”. For the same substance, the “RT activity lower in MBPCs-treated samples than control samples” value in the data set with HIV-1 or HIV-2 is “more than 90%”. The “inhibition of macrophage infection, in words” value with HIV-1 (89.6) is given as “able to inhibit infection”. The “reactivity of sera from rabbits immunized with the MBPC (ELISA, FIG. 6)” value with rabbits is “recognized significantly MBPC.2 and V3 Cons”. The “antibody response in rabbits” value in the data set on rabbits is listed as “did invoke such a response”. Moreover, the “inhibiting effect on syncytia formation, in words” value with HIV was “inhibiting effect at a slightly higher concentration”.

(Values after US5622933A, “Multiple branch peptide constructions for use against HIV” (priority 1993, dated 1997).)
